Data reported in US20170095565A1, “CHEMICALLY MODIFIED SMALL MOLECULES” (Nektar Therapeutics, priority 2003, published 2017).
Values after ≈ are worked out from the molar mass of the structure shown. Where two headings read alike, the source gives them in different places.

How the values were obtained:
[1] = Solubility of tested compounds (Table 1)
[2] = Oral bioavailability: plasma concentration after oral gavage; assay type: in vivo, Sprague Dawley rats; conditions: rats
Experimental: Female Sprague Dawley® rats (150-200 g) were obtained from Harlan Labs. […] The animals were fasted overnight (day −1), but water was provided ad libitum.
On the morning of dosing (day 0), each rat was weighed and the cannulas flushed with heparin (1000 U/mL). With the aid of a feeding tube, the animals were then dosed orally (gavage) with aqueous formulations containing either the PEGylated or the free drug. The dose was determined on a mg/kg body weight basis. […] At specific time intervals (1, 2 and 4 hours), blood samples (approximately 1.0 mL) were removed through the cannula, placed in 1.5 mL centrifuge tubes containing 14 μL of heparin, mixed and centrifuged to separate the plasma. The plasma samples were frozen (<−70° C.) until assayed. The plasma samples were purified by a precipitation technique and the analyte extracted and assayed using a high performance liquid chromatography (LC) method with a mass selective detector (MSD). […] When appropriate, an internal standard was used in the analysis.

[3] = In situ brain perfusion, blood-brain barrier uptake; conditions: for Normalized Brain Uptake Rate (Mean ± SD): normalized to 5 μM dosing solution, 20 mL/min perfusion rate, 30 sec; for Reduction in brain uptake rate (BUR) compared to the parent compound (factor / times): vs parent drug
Experimental: As utilized for these experiments, the in situ brain perfusion technique employed the intact rat brain to (i) determine drug permeation across the BBB under normal physiological conditions, and (ii) to study transport mechanisms such as passive diffusion verses carrier mediated transport.
Perfusion was performed using the single time-point method. Briefly, the perfusion fluid (perfusate) containing the test compound(s) was infused into rats via the left external carotid artery at a constant rate by an infusion pump (20 mL/min). Perfusion flow rate was set to completely take over fluid flow to the brain at normal physiologic pressure (80-120 mm Hg). The duration of the perfusion was 30 seconds. Immediately following the perfusion, the brain vasculature was perfused for an additional 30 seconds with drug-free perfusate to remove residual drug. The pump was turned off and the brain was then immediately removed from the skull. Left-brain samples from each rat were first weighed and then homogenized using a Polytron homogenizer. Four (4) mL of 20% methanol was added to each rat brain for homogenization. After homogenization, the total volume of homogenate was measured and recorded.
A measured amount of the homogenate was diluted with organic solvent and subsequently centrifuged. The supernatant was removed, evaporated in a stream of nitrogen and reconstituted and analyzed by LC/MS/MS. Quantification of drug concentrations in brain homogenate was performed against calibration curves generated by spiking the drugs into blank (i.e. drug-free) brain homogenate. Analysis of the drug concentrations in brain homogenates was carried out in triplicate, and the values were used to calculate the brain uptake rate in pmole per gram of rat brain per second of perfusion.
All the data was normalized to a 5 μM dosing solution at 20 mL/min perfusion rate for 30 sec.

[4] = target: Mu-opiate (Homo sapiens, UniProt P35372); conditions: read-out: IC50, Mu-opiate binding activity
[5] = target: μ-Opiate Receptors (Homo sapiens, UniProt P35372); experiment: biochemical; assay type: biochemical
From the text: In the table above, for each compound, the bioactivity is provided as a measure of the relative bioactivity of each of the various PEG conjugates in comparison to parent drug. The EC50 is the concentration of agonist that provokes a response halfway between the baseline and maximum response in a standard dose-response curve.

[6] = PEGylated compounds normalized to 1 mg/kg dose

Mu-opiate, sequence (P35372 whole entry): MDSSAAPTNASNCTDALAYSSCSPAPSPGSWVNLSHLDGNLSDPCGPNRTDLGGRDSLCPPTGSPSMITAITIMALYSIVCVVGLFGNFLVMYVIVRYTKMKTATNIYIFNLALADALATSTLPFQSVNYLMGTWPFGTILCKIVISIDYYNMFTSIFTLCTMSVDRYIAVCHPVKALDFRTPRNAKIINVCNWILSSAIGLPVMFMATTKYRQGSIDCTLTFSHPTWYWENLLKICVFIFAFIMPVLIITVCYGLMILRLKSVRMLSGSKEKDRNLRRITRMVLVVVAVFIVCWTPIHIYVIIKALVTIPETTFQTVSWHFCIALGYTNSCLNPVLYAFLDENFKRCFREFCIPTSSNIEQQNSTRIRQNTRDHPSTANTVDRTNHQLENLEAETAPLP
μ-Opiate Receptors, sequence (P35372 whole entry): as above

SMILES: C=CCN1CC[C@]23c4c5ccc(O)c4O[C@H]2[C@H](OCCOCCOCCOCCOCCOCCOCCOC)CC[C@@]3(O)[C@H]1C5 [α-PEG7-Nal, α,β-6-CH3—(OCH2CH2)7—O-naloxol]
- Solubility [1]: soluble
- Mean Plasma Concentration ± SD, 1 hr [2, 6]: 40.08 ± 16.61 ng/mL
- Mean Plasma Concentration ± SD, 2 hr [2, 6]: 39.51 ± 9.57 ng/mL
- Normalized Brain Uptake Rate (Mean ± SD) ([3]; listed as PEG7-Nal (α isomer)): 0.94 ± 0.32 pmole/gm brain/sec
- Percentage of Active Remaining After Incubation with Liver Microsomes (rat, microsomes, 0 h): 100.0%
- Percentage of Active Remaining After Incubation with Liver Microsomes (rat, microsomes, 20 min): 87.4%
- Percentage of Active Remaining After Incubation with Liver Microsomes (rat, microsomes, 40 min): 81.6%
- Percentage of Active Remaining After Incubation with Liver Microsomes (rat, microsomes, 1 h): 76.9%

SMILES: C=CCN1CC[C@]23c4c5ccc(O)c4O[C@H]2[C@H](OCCOCCOCCOCCOCCOCCOCCOC)CC[C@@]3(O)[C@H]1C5 [β-PEG7-Nal, α,β-6-CH3—(OCH2CH2)7—O-naloxol]
- Solubility [1]: soluble
- Mean Plasma Concentration ± SD, 1 hr [2, 6]: 50.41 ± 36.44 ng/mL
- Mean Plasma Concentration ± SD, 2 hr [2, 6]: 50.08 ± 25.28 ng/mL
- Normalized Brain Uptake Rate (Mean ± SD) [3]: 0.70 ± 0.19 pmole/gm brain/sec

SMILES: C=CCN1CC[C@]23c4c5ccc(O)c4O[C@H]2[C@@H](OCCOCCOCCOC)CC[C@@]3(O)[C@H]1C5 [α-PEG3-Nal, α-6-CH3—(OCH2CH2)3—O-naloxol]
- Solubility [1]: soluble
- Mean Plasma Concentration ± SD, 1 hr [2, 6]: 37.28 ± 4.99 ng/mL
- Mean Plasma Concentration ± SD, 2 hr [2, 6]: 14.92 ± 5.27 ng/mL
- IC50 [4]: 7.3 nM
- Percentage of Active Remaining After Incubation with Liver Microsomes (0 min): 100.0%
- Percentage of Active Remaining After Incubation with Liver Microsomes (20 min): 64.8%
- Percentage of Active Remaining After Incubation with Liver Microsomes (40 min): 51.7%
- Percentage of Active Remaining After Incubation with Liver Microsomes (60 min): 45.7%
- Bioactivity relative to the parent compound ([5]; from EC50 values): about 30%
- EC50 ([5]; μ-opiate receptors, in-vitro): 7.3 nM

SMILES: COCCOCCOCCOCCOCCOCCOCCNC(=O)\C=C(C)/C=C/C=C(C)/C=C/C1=C(C)CCCC1(C)C [PEG7-13-cis-RA, CH3—(OCH2CH2)7—NH-13-cis-Retinamide]
- Solubility [1]: 58.3 µM (≈ 36.3 µg/mL)
- Mean Plasma Concentration ± SD, 1 hr ([2]; normalized to a 6 mg/kg dose): 44.0 ± 13.0 ng/mL
- Mean Plasma Concentration ± SD, 2 hr ([2]; normalized to a 6 mg/kg dose): 38.7 ± 4.2 ng/mL
- Normalized Brain Uptake Rate (Mean ± SD) [3]: 24.15 ± 1.49 pmole/gm brain/sec
- Reduction in brain uptake rate (BUR) compared to the parent compound (factor / times) [3]: four

SMILES: COCCOCCOCCOCCOCCOCCOCCOCCOCCOCCOCCNC(=O)\C=C(C)/C=C/C=C(C)/C=C/C1=C(C)CCCC1(C)C [PEG11-13-cis-RA, CH3—(OCH2CH2)11—NH-13-cis-Retinamide]
- Solubility [1]: soluble
- Mean Plasma Concentration ± SD, 1 hr ([2]; normalized to a 6 mg/kg dose): 21.8 ± 7.1 ng/mL
- Mean Plasma Concentration ± SD, 2 hr ([2]; normalized to a 6 mg/kg dose): 58.2 ± 43.5 ng/mL
- Normalized Brain Uptake Rate (Mean ± SD) [3]: 17.77 ± 1.68 pmole/gm brain/sec
- Reduction in brain uptake rate (BUR) compared to the parent compound (factor / times) [3]: five

SMILES: C=CCN1CC[C@]23c4c5ccc(O)c4O[C@H]2[C@H](OCCOCCOCCOCCOCCOC)CC[C@@]3(O)[C@H]1C5 [α-PEG5-Nal, α,β-6-CH3—(OCH2CH2)5—O-naloxol]
- Solubility [1]: soluble
- Mean Plasma Concentration ± SD, 1 hr [2, 6]: 27.37 ± 10.82 ng/mL
- Mean Plasma Concentration ± SD, 2 hr [2, 6]: 15.38 ± 6.65 ng/mL
- IC50 [4]: 31.5 nM
- Percentage of Active Remaining After Incubation with Liver Microsomes (rat, microsomes, 0 h): 100.0%
- Percentage of Active Remaining After Incubation with Liver Microsomes (rat, microsomes, 20 min): 84.1%
- Percentage of Active Remaining After Incubation with Liver Microsomes (rat, microsomes, 40 min): 75.6%
- Percentage of Active Remaining After Incubation with Liver Microsomes (rat, microsomes, 1 h): 69.2%
- EC50 [5]: 31.5 nM

SMILES: C=CCN1CC[C@]23c4c5ccc(O)c4O[C@H]2[C@H](OCCOCCOCCOCCOCCOCCOCCOC)CC[C@@]3(O)[C@H]1C5 [PEG7-Nal, α,β-6-CH3—(OCH2CH2)7—O-naloxol]
- Reduction in brain uptake rate (BUR) compared to the parent compound (factor / times) [3]: 16

SMILES: C=CCN1CC[C@]23c4c5ccc(O)c4O[C@H]2[C@@H](OCCOCCOCCOCCOCCOCCOCCOCCOCCOC)CC[C@@]3(O)[C@H]1C5 (single isomer, unassigned) [α isomer of PEG9-Nal]
- Solubility [1]: soluble
- IC50 ([4]; naloxone series of compounds): 64.4 nM

SMILES: C=CCN1CCC23c4c5ccc(O)c4OC2C(O)CCC3(O)C1C5 (single isomer, unassigned) [α-6-naloxol, reference compound]
- EC50 ([5]; μ-opiate receptors, in-vitro): 2 nM

SMILES: C=CCN1CC[C@]23c4c5ccc(O)c4O[C@H]2C(OCCOCCOCCOC)CC[C@@]3(O)[C@H]1C5 (some centres unmarked) [PEG3-Nal, 6-CH3—(OCH2CH2)3-Naloxol]
- Normalized Brain Uptake Rate (Mean ± SD) [3]: 4.67 ± 3.57 pmole/gm brain/sec

SMILES: CC1=C(/C=C/C(C)=C/C=C/C(C)=C\C(=O)O)C(C)(C)CCC1 [13-cis-Retinoic Acid, 13-cis-retinoic acid, reference compound]
- Solubility [1]: 0.47 µM (≈ 0.141 µg/mL)
- Mean Plasma Concentration ± SD, 1 hr ([2]; normalized to a 6 mg/kg dose): 43.3 ± 24.0 ng/mL
- Mean Plasma Concentration ± SD, 2 hr ([2]; normalized to a 6 mg/kg dose): 23.3 ± 14.8 ng/mL
- Normalized Brain Uptake Rate (Mean ± SD) [3]: 102.54 ± 37.31 pmole/gm brain/sec

SMILES: COCCOCCOCCOCCOCCNC(=O)\C=C(C)/C=C/C=C(C)/C=C/C1=C(C)CCCC1(C)C [PEG5-13-cis-RA, CH3—(OCH2CH2)5—NH-13-cis-retinamide]
- Solubility [1]: soluble
- Mean Plasma Concentration ± SD, 1 hr ([2]; normalized to a 6 mg/kg dose): 77.7 ± 31.6 ng/mL
- Mean Plasma Concentration ± SD, 2 hr ([2]; normalized to a 6 mg/kg dose): 61.6 ± 57.1 ng/mL
- Normalized Brain Uptake Rate (Mean ± SD) [3]: 58.49 ± 13.44 pmole/gm brain/sec

SMILES: C=CCN1CCC23c4c5ccc(O)c4OC2C(O)CCC3(O)C1C5 (single isomer, unassigned) [β-6-naloxol, reference compound]
- EC50 ([5]; μ-opiate receptors, in-vitro): 10.8 nM

SMILES: C=CCN1CC[C@]23c4c5ccc(O)c4O[C@H]2C(=O)CC[C@@]3(O)[C@H]1C5 [Naloxone, naloxone, reference compound]
- Normalized Brain Uptake Rate (Mean ± SD) [3]: 15.64 ± 3.54 pmole/gm brain/sec
- Percentage of Active Remaining After Incubation with Liver Microsomes (0 min): 100.0%
- Percentage of Active Remaining After Incubation with Liver Microsomes (20 min): 47.1%
- Percentage of Active Remaining After Incubation with Liver Microsomes (40 min): 27.6%
- Percentage of Active Remaining After Incubation with Liver Microsomes (60 min): 15.6%

SMILES: C=CCN1CC[C@]23c4c5ccc(O)c4O[C@H]2[C@H](OCCOCCOCCOCCOCCOC)CC[C@@]3(O)[C@H]1C5 [β-PEG5-Nal, α,β-6-CH3—(OCH2CH2)5—O-naloxol]
- Solubility [1]: soluble
- Mean Plasma Concentration ± SD, 1 hr [2, 6]: 69.34 ± 15.03 ng/mL
- Mean Plasma Concentration ± SD, 2 hr [2, 6]: 36.92 ± 15.84 ng/mL
- IC50 ([4]; naloxone series of compounds): 43.3 nM
- EC50 ([5]; μ-opiate receptors, in-vitro): 43.3 nM

SMILES: COCCOCCOCCNC(=O)\C=C(C)/C=C/C=C(C)/C=C/C1=C(C)CCCC1(C)C [PEG3-13-cis-RA, CH3(OCH2CH2)3—NH-13-cis-Retinamide]
- Solubility [1]: 3.13 µM (≈ 1.39 µg/mL)
- Mean Plasma Concentration ± SD, 1 hr ([2]; normalized to a 6 mg/kg dose): 131.8 ± 55.0 ng/mL
- Mean Plasma Concentration ± SD, 2 hr ([2]; normalized to a 6 mg/kg dose): 158.0 ± 133.0 ng/mL
- Normalized Brain Uptake Rate (Mean ± SD) [3]: 79.65 ± 20.91 pmole/gm brain/sec

SMILES: C=CCN1CC[C@]23c4c5ccc(O)c4O[C@H]2[C@H](OCCOCCOCCOCCOCCOC)CC[C@@]3(O)[C@H]1C5 [PEG5-Nal, α,β-6-CH3—(OCH2CH2)5—O-naloxol]
- Normalized Brain Uptake Rate (Mean ± SD) [3]: 0.96 ± 0.36 pmole/gm brain/sec
- Reduction in brain uptake rate (BUR) compared to the parent compound (factor / times) [3]: 16
